Source: ChEMBL document CHEMBL6078646, “Target Ligand Separation and Identification of Isoforsythiaside as a Histone Lysine-Specific Demethylase 1 Covalent Inhibitor Against Breast Cancer Metastasis” (J Med Chem, 2024)
The source made the active and inactive calls. The calls are words filed in the database; no cut-off is given here.

Legend:
MDA-MB-231 [1] = experiment: Induction of RBMS3 promoter transcriptional activity in human MDA-MB-231 cells by luciferase reporter gene assay; assay type: functional, cell-based
MDA-MB-231 [2] = experiment: Effect on N-cadherin protein expression in LSD1 knockout human MDA-MB-231 cells at 16 uM by Western blot analysis; assay type: functional, cell-based
MDA-MB-231 [3] = experiment: Inhibition of cell migration in human MDA-MB-231 cells incubated for 24 hrs by phase contrast microscopy based wound healing assay; assay type: functional; conditions: dose 0-32 µM
MDA-MB-231 [4] = experiment: Effect on LSD1 nuclear localization in human MDA-MB-231 cells transfected with LSD1 fluorescence antibody by fluorescence based analysis; assay type: functional, cell-based
MDA-MB-231 [5] = experiment: Upregulation of RBMS3 protein expression in human MDA-MB-231 cells at 4 to 32 uM by Western blotting analysis; assay type: functional, cell-based; conditions: dose 4-32 µM
MDA-MB-231 [6] = experiment: Upregulation of H3K4me1 protein expression in human MDA-MB-231 cells by Western blot analysis; assay type: functional, cell-based; conditions: dose 4-32 µM
[7] = Retention time of the compound by HPLC-MS/MS analysis; assay type: physicochemical
[8] = target: T1, Lysine-specific histone demethylase 1A (Homo sapiens, UniProt O60341); experiment: Non-competitive inhibition of LSD1 (unknown origin) using H3K4me2 as substrate by Lineweaver-Burk plot analysis
MDA-MB-231 [9] = experiment: Effect on CD86 protein expression in LSD1 knockout human MDA-MB-231 cells at 16 uM by Western blot analysis; assay type: functional, cell-based
Homo sapiens = species on record: Homo sapiens; experiment: Binding affinity to recombinant LSD1 Ser817A mutant (unknown origin) assessed as protection of pronase-dependent degradation at 15 to 75 uM preincubated for 30 mins followed by pronase addition and measured after 30 mins by DARTS assay; conditions: dose 15-75 µM, time 60.0 min
[10] = target: T1, Lysine-specific histone demethylase 1A; experiment: Stabilization of LSD1 in human MDA-MB-231 cells incubated for 24 hrs in presence of cycloheximide by Western blotting analysis; assay type: cell-based
MDA-MB-231 [11] = experiment: Antitumor activity against human MDA-MB-231 cells expressing luciferase xenografted in female Balb/c nude mouse assessed as increase in body weight at 12 to 50 mg/kg, ip administered every 3 days and measured after 33 days; assay type: functional, organism-based; conditions: dose 12-50 mg/kg, time 33.0 day
MCF7 = experiment: Cytotoxicity against human MCF7 cells assessed as cell viability at 0 to 100 uM incubated for 24 hrs by MTT assay; assay type: functional; conditions: dose 0-100 µM
[12] = Toxicity in female Balb/c mouse assessed as effect on lymphocyte level at 50 mg/kg, ip administered every other day for 7 times; assay type: organism-based; conditions: in vivo
MDA-MB-231 [13] = experiment: Antimetastatic activity against human MDA-MB-231 cells expressing luciferase xenografted in female Balb/c nude mouse assessed as reduction in number of metastatic nodules in the lung at 12 mg/kg, ip administered every 3 days and measured after 30 days by H and E staining based histopathological analysis relative to control; assay type: functional; set-up: scale not given: the % may be the effect or the level left; conditions: time 30 day
[14] = Toxicity in female Balb/c mouse assessed as effect on hemoglobin level at 50 mg/kg, ip administered every other day for 7 times; assay type: organism-based; conditions: in vivo
[15] = Cytotoxicity against human MCF-10A cells assessed as cell viability at 0 to 100 uM incubated for 24 hrs by MTT assay; assay type: toxicity, cell-based; conditions: dose 0-100 µM, read-out: Activity
MDA-MB-231 [16] = experiment: Antimetastatic activity against human MDA-MB-231 cells expressing luciferase xenografted in female Balb/c nude mouse assessed as reduction in lung metastasis at 12 to 50 mg/kg, ip administered every 3 days and measured on day 30 by bioluminescence imaging analysis; assay type: functional, organism-based; conditions: dose 12-50 mg/kg, time 30.0 day
[17] = Toxicity in female Balb/c nude mouse xenografted with human MDA-MB-231 cells expressing luciferase assessed as abnormalities liver at 12 to 50 mg/kg, ip administered every 3 days and measured after 30 days by H and E staining based analysis; assay type: organism-based; conditions: in vivo, 720 h, dose 12-50 mg/kg, time 30 day
MDA-MB-231 [18] = experiment: Inhibition of MMP2 production in human MDA-MB-231 cells by Western blotting analysis; assay type: functional, cell-based; conditions: dose 0-32 µM
[19] = Toxicity in female Balb/c nude mouse xenografted with human MDA-MB-231 cells expressing luciferase assessed as abnormalities spleen at 12 to 50 mg/kg, ip administered every 3 days and measured after 30 days by H and E staining based analysis; assay type: organism-based; conditions: in vivo, 720 h, dose 12-50 mg/kg, time 30 day
[20] = target: T1, Lysine-specific histone demethylase 1A; experiment: Inhibition of LSD1 (unknown origin) activity measured after 80-fold dilution by dilution assay
MDA-MB-231 [21] = experiment: Inhibition of cell invasion in LSD1 knockout human MDA-MB-231 cells at 16 uM incubated for 24 hrs by phase contract microscopy based transwell assay; assay type: functional
[22] = Toxicity in female Balb/c mouse assessed as histological changes in spleen at 50 mg/kg, ip administered every other day for 7 times by H and E staining based analysis; assay type: organism-based; conditions: in vivo
MDA-MB-231 [23] = experiment: Antimetastatic activity against human MDA-MB-231 cells expressing luciferase xenografted in female Balb/c nude mouse assessed as reduction in number of metastatic nodules in the lung at 25 mg/kg, ip administered every 3 days and measured after 30 days by H and E staining based histopathological analysis relative to control; assay type: functional; set-up: scale not given: the % may be the effect or the level left; conditions: time 30 day
MDA-MB-231 [24] = experiment: Antimetastatic activity against LSD1 knockout human MDA-MB-231 cells xenografted in mouse model assessed as reduction in metastatic nodules in lung measured after 27 days by H and E staining based analysis; assay type: functional, cell-based; conditions: time 27.0 day
MDA-MB-231 [25] = experiment: Inhibition of cell migration in LSD1 knockout human MDA-MB-231 cells at 16 uM incubated for 24 hrs by phase-contrast microscopy based wound healing assay; assay type: functional
[26] = Toxicity in female Balb/c mouse assessed as effect on BUN level at 50 mg/kg, ip administered every other day for 7 times; assay type: organism-based; conditions: in vivo
[27] = Toxicity in female Balb/c nude mouse xenografted with human MDA-MB-231 cells expressing luciferase assessed as abnormalities kidney at 12 to 50 mg/kg, ip administered every 3 days and measured after 30 days by H and E staining based analysis; assay type: organism-based; conditions: in vivo, 720 h, dose 12-50 mg/kg, time 30 day
[28] = Toxicity in female Balb/c mouse assessed as effect on WBC level at 50 mg/kg, ip administered every other day for 7 times; assay type: organism-based; conditions: in vivo
[29] = target: T1, Lysine-specific histone demethylase 1A; experiment: Binding affinity to LSD1 (unknown origin) assessed as protection of pronase-dependent degradation at 15 to 75 uM preincubated for 30 mins followed by pronase addition and measured after 30 mins by DARTS assay; conditions: dose 15-75 µM, time 60.0 min
[30] = Toxicity in female Balb/c nude mouse xenografted with human MDA-MB-231 cells expressing luciferase assessed as appearance of heart lesions at 12 to 50 mg/kg, ip administered every 3 days and measured after 30 days by H and E staining based analysis; assay type: organism-based; conditions: in vivo, 720 h, dose 12-50 mg/kg, time 30 day
[31] = Toxicity in female Balb/c mouse assessed as effect on granulocyte level at 50 mg/kg, ip administered every other day for 7 times; assay type: organism-based; conditions: in vivo
MDA-MB-231 [32] = experiment: Antimetastatic activity against LSD1 knockout human MDA-MB-231 cells xenografted in mouse model assessed as reduction in number of metastatic nodules in the lung measured after 27 days; assay type: functional, cell-based; conditions: time 27.0 day
MDA-MB-231 [33] = experiment: Inhibition of Twist1 production in human MDA-MB-231 cells by Western blotting analysis; assay type: functional, cell-based
[34] = target: T1, Lysine-specific histone demethylase 1A; experiment: Inhibition of LSD1 in human MDA-MB-231 cells assessed as increase in H3K4me1 accumulation by Western blotting analysis; assay type: cell-based; conditions: dose 0-32 µM

C[C@@H]1O[C@H](OC[C@H]2O[C@@H](OCCc3ccc(O)c(O)c3)[C@H](O)[C@@H](OC(=O)/C=C/c3ccc(O)c(O)c3)[C@@H]2O)[C@H](O)[C@H](O)[C@H]1O
Activity (MDA-MB-231 [1]): Active
Activity (MDA-MB-231 [2]): inactive
inhibition (MDA-MB-231 [3]): Dose-dependent-effect
Activity (MDA-MB-231 [4]): inactive
Activity (MDA-MB-231 [5]): Active
Activity (MDA-MB-231 [6]): Dose-dependent-effect
Retention_time [7]: 18.4 min
inhibition [8]: Active
Activity (MDA-MB-231 [9]): inactive
Activity (Homo sapiens): inactive
Activity [10]: Active
Activity (MDA-MB-231 [11]): Active; Slight Increase In Body Weight Observed
Activity (MCF7): >90%
Activity [12]: Non-toxic
Activity (MDA-MB-231 [13]): 7.1%
Activity [14]: Non-toxic
viability at 24 h, up to 100 µM [15]: > 90%
Activity (MDA-MB-231 [16]): Active
Activity [17]: Non-toxic
inhibition (MDA-MB-231 [18]): Dose-dependent-effect
Activity [19]: Non-toxic
inhibition [20]: Active; Compound Exerts Inhibition In An Irreversible Manner
inhibition (MDA-MB-231 [21]): Active; No Significant Difference With Lsd1 Knockout Control Group
Activity [22]: Non-toxic
Activity (MDA-MB-231 [23]): 33.3%
Activity (MDA-MB-231 [24]): Active; No Significant Difference Compared To Lsd1 Knockout Control Group
inhibition (MDA-MB-231 [25]): Active; No Significant Difference With Lsd1 Knockout Control Group
Activity [26]: Non-toxic
Activity [27]: Non-toxic
Activity [28]: Non-toxic
Activity [29]: Active
Activity [30]: Non-toxic
Activity [31]: Non-toxic
Activity (MDA-MB-231 [32]): Active
inhibition (MDA-MB-231 [33]): Dose-dependent-effect
inhibition [34]: Dose-dependent-effect
